{"source": "patent US9320270B2", "about": "“Method of field application of natural pesticides with reduced toxicity and high efficacy by means of microencapsulation” (priority 2009, dated 2016)", "test": "decomposition during emulsification at 70° C.", "type": "physicochemical", "conditions": "without antioxidants and weak acids", "experimental": "The process of microencapsulation is performed adding the oil phase to the first water phase under high shear stress, being emulsified at 70° C."}
{"substance": "abamectin", "values": [{"measurement": "decomposition during emulsification", "result": "5-25%"}]}
